# What was measured:
# [1] = test system: E. coli ATCC 25932, L. monocytogenes ATCC 19115; Staphylococcus aureus ATCC 6538P, Salmonella enterica ATCC 13076; test: MIC-MBC in planktonic cells, the four pathogens together; format: cell-based; details: buffer used alone; range over the four pathogens; 18-20 hrs exposure
# Procedure: The efficacy of the formulation was evaluated through minimal inhibitory concentration (MIC) and minimal bactericide concentration (MBC) against pathogens E. coli ATCC 25932, L. monocytogenes ATCC 19115; Staphylococcus aureus ATCC 6538P, Salmonella enterica ATCC 13076. […] The range of disinfectant concentrations was 0.037-5.17% w/v to acetate buffer and 0.043-6.06% w/v to propionate buffer. These concentrations are obtained from a stock solution which is diluted with filtered water.
# Botrytis cinerea = test: Inhibition of conidia germination; format: cell-based; details: 24 hours
# Procedure: (§1) In summary 100 μl of inoculum suspension was added into 96 wells in plates, using the following concentrations: 0.037-14.8% w/v acetate buffer and 0.043-17.31% w/v propionate buffer; 100 μl water (fungus) or culture medium (bacteria) and 10 μl of inoculum suspension at a final concentration of 1×10^5 UFC/ml. An incubation of 24 hours at ±25° C. was performed, assays was made by triplicate. The antimicrobial effect was evaluated as follows: B. cinerea, a germinated conidia counting was made; and P. syringae, a minimal inhibitory concentration (MIC) was firstly made through presence/absence of turbidity, and from the concentrations in absence of turbidity 100 μl was taken to be transferred to a culture medium without the antimicrobial formulation and an incubation of 24 hours at room temperature was carried out to assay the minimal bactericide concentration (MBC).
# [2] = test system: mesophyll aerobics and enterobacteria; test: Disinfectant effect on non-inoculated meats, the 3 types of meats together; details: 2.5% Sodium Acetate; different meats, during test days
# Procedure: Assays to evaluate antimicrobial effect on the surface of beef, chicken meat and salmon meat was performed. […] The growth of bacteria Escherichia coli was allowed in a TSB culture medium by 24 h at 35° C.
# Disinfecting effect on a total mesophyll aerobic and enterobacteria microorganism counting was evaluated to initial non inoculated (E. coli) meat. Also, a concentration of 10^1 UFC/g of E. coli was inoculated and then the disinfectant effect was evaluated on such pathogen microorganism counting.
# Meat (beef, chicken and salmon) was purchased the same date in which the assay was arranged and was kept under storing conditions at 4° C. up to using the same. Prior to initiating assays pieces of 5 grams, pieces were randomly selected to each treatment, and a) pieces were independently inoculated with 0.2 ml of culture comprising the above mentioned bacteria by separate and 2 ml was applied to the treatments to be defined below or b) pieces were only chopped and 2 ml of treatment was applied:
# Meat pieces (inoculated or non-inoculated) with its respective treatments was transferred to tubes of 50 mL under conditions of sterility and stored at 4° C. up to its final evaluation. Assays were made by triplicate.
# Antimicrobial activity evaluation was performed to 0, 3, 8 and 12 post-treatment days. […] Colonies were counted at 24 and 48 hours, depending the medium to be used to the counting.
# pathogen disease = test: Disease incidence in inoculated fruits, 21-days aged fruits (fruit not stated)
# Excerpt: Fruits having similar, size, form and color and having no visual damage by fungi were selected. To perform assays a 1-2 mm deep wound was made on the selected fruit by a needle and 10^5 UFC/ml B. cinerea and Penicillium spp. (to different samples, independent test) were inoculated through the same wound under sterility conditions, fruits was not disinfected prior to the inoculation procedures. Assays was made by triplicate on 6 units submitted to visual inspection during the treatment, which were equidistantly located therebetween in Petri plates of 100×15 mm and exposed to a disinfectant treatment (Different proportions and concentrations) spraying on the fruit 0.2 ml of the different synergistic proportion of the formulation, finally an incubation at 4° C. was allowed.
# Four acetate/propionate mixtures (proportions) were tested, 17.2:1, 6.86:1, 1.72:1 and 0.043:1; for each of them two or three concentrations were tested. Treatments: Treatment A/Treatment 1: 3.38% w/v mixture acetate/propionate buffers. Treatment B/Treatment 2: 11.25% w/v mixture acetate/propionate buffers. Treatment C: 25% w/v mixture acetate/propionate buffers. Treatment D/Negative Control: Fruits with wound immersed in water. […]
# Assays were evaluated to days 0 (control), 7, 14 and 21, a counting of fruits showing pathogen signs was made to determined incidence. […]
# [3] = test system: L. monocytogenes ATCC 19115 biofilm; test: CDC biofilm reactor, biofilm on stainless steel coupons; format: cell-based, Listeria monocytogenes; details: 250 ppm, 30 minutes contact
# Procedure: (§2) Tests on bacterial biofilms were also made to the pathogen strains, which were performed as follows: stainless steel coupons (type 316) were washed, installed on a support within a glass vessel and autoclaved at 121° C. by 20 minutes. To evaluate the disinfectant effect over a stablished biofilm to each separate bacteria, 3 ml of a concentration of 0.5 Mc Farland was inoculated within a vessel and then the same was incubated by 6, 12, 24 and 48 hours at 16° C. After each time of incubation supports containing coupons were removed and transferred to Falcon tubes of 50 ml containing the present synergistic disinfectant formulation at the following concentrations, DS1: 15% w/v (ratio acetate:propionate, 6.86:1) and DS2: 35% w/v (ratio acetate:propionate, 6.86:1). Peracetic acid was used (PAA) as control at concentrations of 250 ppm, the contact with the present synergistic disinfectant formulation or peracetic acid with supports containing biofilms was kept by 30 minutes. To perform a counting, an aliquot was taken, seeded into trypticase agar and incubated at 30° C. by 24 h, finally a counting of adhered cells was made. […]
# [4] = test system: E. coli ATCC 25932 biofilm; test: as above; format: cell-based, Escherichia coli; details: 250 ppm, 30 minutes contact
# Procedure: as §2
# [5] = test system: Salmonella enterica ATCC 13076 biofilm; test: as above; format: cell-based; details: 250 ppm, 30 minutes contact
# Procedure: (§3) Tests on bacterial biofilms were also made to the pathogen strains, which were performed as follows: stainless steel coupons (type 316) were washed, installed on a support within a glass vessel and autoclaved at 121° C. by 20 minutes. To evaluate the disinfectant effect over a stablished biofilm to each separate bacteria, 3 ml of a concentration of 0.5 Mc Farland was inoculated within a vessel and then the same was incubated by 6, 12, 24 and 48 hours at 16° C. After each time of incubation supports containing coupons were removed and transferred to Falcon tubes of 50 ml containing the present synergistic disinfectant formulation at the following concentrations, DS1: 15% w/v (ratio acetate:propionate, 6.86:1) and DS2: 35% w/v (ratio acetate:propionate, 6.86:1). Peracetic acid was used (PAA) as control at concentrations of 250 ppm, the contact with the present synergistic disinfectant formulation or peracetic acid with supports containing biofilms was kept by 30 minutes. To perform a counting, an aliquot was taken, seeded into trypticase agar and incubated at 30° C. by 24 h, finally a counting of adhered cells was made. FIGS. 1 to 4 showing bacteria concentrations obtained to different times after 30 minutes of treatment using the above mentioned disinfectant formulations and peracetic acid as control to the following pathogens: L. monocytogenes ATCC 19115 (FIG. 1); E. coli ATCC 25932 (FIG. 2), Salmonella enterica ATCC 13076.L. (FIG. 3); and Staphylococcus aureus ATCC 6538P (FIG. 4).
# [6] = test system: Staphylococcus aureus ATCC 6538P biofilm; test: as above; format: cell-based; details: 250 ppm, 30 minutes contact
# Procedure: as §3
# Pseudomonas syringae = test: MIC and MBC against agronomical pest; format: cell-based; details: buffer alone; 24 hours
# Procedure: as §1
compound,measurement,setting,value
"CCC(=O)O [Propionate, propionate buffer]",Concentration needed by separate to eliminate the pathogens (MBC),[1],0.43-3.46 % w/v
same,inhibition at 2.6 % strength,"Botrytis cinerea; Botrytis cinerea, Propionate 2.6 % w/v",5.6%
same,inhibition at 6.06 % strength,"Botrytis cinerea; Botrytis cinerea, Propionate 6.06 % w/v",18.1%
same,inhibition at 8.65 % strength,"Botrytis cinerea; Botrytis cinerea, Propionate 8.65 % w/v",21.2%
"CC(=O)[O-].[Na+] [sodium acetate, Sodium Acetate]",Aerobic mesophilic and enterobacterial counts,[2],close to the negative control
benzalkonium chloride,Time for which pathogen disease / incidence is inhibited,pathogen disease,42 days
CC(=O)OO [peracetic acid],Elimination of biofilm,[3]; 24-hours aged biofilms,fully eliminate
same,Reduction of biofilm,[3]; biofilm after 6 and 12 hours,completely reduced
same,Elimination of biofilm,[4]; 24-hours aged biofilms,fully eliminate
same,Reduction of biofilm,[4]; biofilm after 6 and 12 hours,completely reduced
same,Elimination of biofilm,[5]; 24-hours aged biofilms,fully eliminate
same,Reduction of biofilm,[5]; biofilm after 6 and 12 hours,completely reduced
same,Elimination of biofilm,[6]; 24-hours aged biofilms,fully eliminate
same,Reduction of biofilm,[6]; biofilm after 6 and 12 hours,completely reduced
acetate buffer,Concentration needed by separate to eliminate the pathogens (MBC),[1],0.74-3.69 % w/v
same,Inhibition of germination (%),"Botrytis cinerea; Acetate 2.22 % w/v, adjusted mortality media",0.3%
same,Inhibition of germination (%),Botrytis cinerea; Acetate 5.17 % w/v,7.4%
same,Inhibition of germination (%),Botrytis cinerea; Acetate 7.4 % w/v,8.1%
same,MBC,Pseudomonas syringae,3.69 % w/v

# Source: US20230052893A1, “A SYNERGISTIC BACTERICIDE AND BACTERIOSTATIC ORGANIC SANITIZING/DISINFECTANT/CLEANING FORMULATION” (UNIVERSIDAD DE CONCEPCIÓN, priority 2020, published 2023)
